The text below walks through data of US20250195542A1, “METABOLIC DISEASE THERAPEUTIC AGENT OR PREVENTIVE AGENT” (Peking University, priority 2022, published 2025).

Where a chain is given by its changes, count along the chain named.

For data set [1], the target named is T1, RDH10 (Mus musculus, UniProt Q8VCH7).
T1 construct: Take approximately 50 mg of liver tissue from C57BL/6J mice and add 1 mL of RIPA lysis buffer; from tissue; host or cells: mouse liver (C57BL/6J) lysate
T1 sequence (Q8VCH7 1-341): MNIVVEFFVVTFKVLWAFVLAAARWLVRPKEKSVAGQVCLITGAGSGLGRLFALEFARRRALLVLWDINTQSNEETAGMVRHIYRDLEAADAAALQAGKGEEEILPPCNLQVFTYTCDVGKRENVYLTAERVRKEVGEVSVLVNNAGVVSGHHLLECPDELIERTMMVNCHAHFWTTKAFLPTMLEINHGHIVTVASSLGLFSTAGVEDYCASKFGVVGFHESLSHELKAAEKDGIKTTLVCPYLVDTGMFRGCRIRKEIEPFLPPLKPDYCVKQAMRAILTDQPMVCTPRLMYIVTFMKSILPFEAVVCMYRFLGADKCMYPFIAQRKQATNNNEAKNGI
Put plainly: Cellular thermal shift assay (CETSA / ITDRFCETSA). It counts as binding. The method, then:
• 1. Mouse liver total protein (500 μg/mL) was incubated at room temperature for 2 hours with either 25S-Antcin C (100 μM) or an equal volume of DMSO. • 2. After incubation, the 25S-Antcin C-treated group and the DMSO control group were aliquoted into 13 PCR tubes, with 30 μL per tube, and placed on ice. • 3. In a PCR machine, a gradient heating program for CETSA was set up with 12 temperature points (37, 41, 45, 49, 53, 57, 61, 65, 69, 73, 77, 81° C.). The 13 samples from the 25S-Antcin C-treated group and the DMSO control group were heated at each temperature point for 3 minutes, then immediately taken out and incubated at room temperature for 3 minutes, followed by rapid cooling on ice. • 4. The samples were transferred to 1.5 mL EP tubes and centrifuged at 15,000 rpm for 40 minutes at 4° C. • 5. The supernatant was transferred to new EP tubes, mixed with 5×SDS-PAGE loading buffer, and boiled for 5 minutes to denature the proteins. Western Blot was then performed.

Data set [2] has as its system NASH in MCD model mice. Put plainly: H&E liver histology in MCD mice, Example 12. The note with it: oral 4 weeks, 10 and 20 mg/kg, better than obeticholic acid 10 mg/kg, FIG. 17A. It counts as in vivo, C57BL/6J mice. On the procedure: (§1) Four-week-old male C57BL/6J mice were purchased from the Experimental Animal Center, Peking University Health Science Center. The mice were randomly divided into groups, with 10 mice per group. Methionine choline-deficient diet (MCD) was used to induce NASH, forming the MCD model mice. The model mice were treated with an oral administration of drugs for 4 weeks. After the final treatment, the mice were fasted overnight, and then sacrificed. Serum and liver tissue samples were stored at −80° C., which could be compared with untreated MCD mice (“MCD”) and normal mice (“Nor” or “Normal”). The dosing amounts for each group were as follows: low-dose 25S-Antcin C (“ACS-L”): 10 mg/kg; high-dose 25S-Antcin C (“ACS-H”): 20 mg/kg; obeticholic acid (“OCA”): 10 mg/kg.
After the final treatment, the mice were sacrificed, and the liver tissue samples were fixed overnight in 4% paraformaldehyde, embedded in paraffin, and sectioned. […]

The subject of data set [3] is mouse primary liver cells. Put plainly: Oleic acid-palmitic acid induced lipid deposition with RDH10 siRNA knockdown, mouse primary liver cells (Oil Red O). It counts as cell-based. As to conditions: 20 μM.
The target in the next data set is T2, RDH10 protein (Homo sapiens, UniProt Q8IZV5).
T2 sequence (Q8IZV5 1-341): T1 sequence (Q8VCH7 1-341) with K99N, P107H, R278K, V287I
Put plainly: Surface plasmon resonance (SPR), Biacore T200. It counts as binding. As to conditions: RDH10 immobilized on CM5 chip; 25S-Antcin C 0.78-25 μM; FIG. 15B. On the procedure: Using a Biacore T200 plasmon surface resonance instrument, RDH10 protein was immobilized on a CM5 sensor chip via an amine coupling reaction. The pH of the RDH10 protein was 4.5, and the final immobilization concentration was 50 μg/mL. The running buffer consisted of 50 mM Tris-Hcl buffer containing […] NaCl, 2 mM MgCl2, 0.05% Tween-20, and 5% DMSO. In the binding experiment, different concentrations of 25S-Antcin C (25, 12.5, 6.25, 3.12, 1.56, 0.78 μM) were dissolved in the running buffer. The flow rate was 30 μL/min, with a contact time of 60 seconds and a dissociation time of 60 seconds. Data were analyzed using Biacore software, and the kinetic analysis calculated the affinity constant (KD value).

The target of data set [4] is T1, RDH10. Put plainly: Protein fishing (pull-down) with molecular probe and proteomics analysis. Type of data set: binding, C57BL/6J mice. As to conditions: 400 μM ACS against 40 μM ACS-biotin. On the procedure:
• 1. Preparation of Liver Protein: Take approximately 50 mg of liver tissue from C57BL/6J mice and add 1 mL of RIPA lysis buffer. Lyse the proteins on ice, then centrifuge at 12,000 rpm for 30 minutes at 4° C. Collect the supernatant, measure the protein concentration using BCA method, and dilute to 1 mg/mL with PBS. • 2. Sample Preparation: Prepare new 1.5 mL EP tubes and divide them into control group, drug group, and competitive inhibition group. Add 100 μL of PBS solution containing 40 μM Biotin to the control group, 100 μL of PBS solution containing 40 μM ACS-biotin (prepared in Example 1) to the drug group, and 100 μL of PBS solution containing 40 μM ACS-biotin and 400 μM ACS to the competitive inhibition group. Then, add 100 μL of liver protein lysate (1 mg/mL) to each tube and incubate on a shaking incubator at 4° C. for 2 hours. • 3. Washing Streptavidin Beads: Add 100 μL of streptavidin beads to new 1.5 mL EP tubes and centrifuge at 2,700 rpm for 1 minute. Discard the supernatant and wash the beads with 100 μL of PBS three times. • 4. Binding and Washing: Add the solutions from step 2 to the washed streptavidin beads. Incubate on a shaking incubator at 4° C. for 2 hours, then centrifuge at 2,700 rpm for 1 minute. Discard the supernatant and wash the beads with 100 μL of PBS three times. • 5. Protein Elution: Add 50 μL of PBS to the beads, mix well, and then add 5×SDS-PAGE sample buffer. Boil for 5 minutes and centrifuge at 13,000 rpm for 5 minutes. Store the supernatant at −20° C. for SDS-PAGE gel electrophoresis. • 6. Protein Detection: Stain with Coomassie Brilliant Blue and cut the gel for proteomics analysis.

Data set [5] relates to NASH in MCD model mice. Put plainly: Serum ALT and AST in MCD mice, Example 12. It counts as in vivo, C57BL/6J mice. As to conditions: oral 4 weeks, 10 and 20 mg/kg, better than obeticholic acid 10 mg/kg, FIG. 17B. On the procedure:
as §1
After the final treatment and overnight fasting, mice were anesthetized, and blood was collected from the tail vein. Whole blood was allowed to stand for 2 hours, centrifuged at 6000 rpm for 10 minutes, and the supernatant was used to measure serum alanine aminotransferase (ALT) and aspartate aminotransferase (AST) levels using ALT assay kit and AST assay kit (Bote Biotech, Beijing).

A further data set deals with L02 human liver cells. Put plainly: Oleic acid-palmitic acid induced lipid deposition with RDH10 siRNA knockdown, L02 cells (Oil Red O). Type of data set: cell-based. The note with it: 20 μM.
The conditions of data set [6]: cited from earlier work.
Where [7] appears, read: oleic acid-palmitic acid, 24 hours, FIG. 16B.

Regarding `C=C(CC[C@@H](C)[C@H]1CC[C@H]2C3=C(C(=O)C[C@]12C)[C@@]1(C)CCC(=O)[C@@H](C)[C@@H]1C[C@@H]3O)[C@H](C)C(=O)O` [25S-Antcin C], the “RDH10 protein that did not precipitate” value at RDH10 [1] (100 μM, among 53-69 °C) is reported as “significant increase”. The “stability of RDH10 protein at 61° C. (ITDRFCETSA)” value at RDH10 [1] (constant 61 °C, 0.01-1000 μM, FIG. 15D) was “increased with higher concentrations of 25S-Antcin C, stabilizing after 100 μM”. The “CETSA curve of RDH10” value on RDH10 [1] (mouse liver total protein, 100 μM, 37-81 °C, compared to DMSO group, FIG. 15C) is “shift in the CETSA curve”. Besides, the “liver steatosis and ballooning” value with NASH in MCD model mice [2] is “significantly reduced”. For the same molecule, the “effect on reducing lipid deposition in the RDH10 siRNA group” value (in data set [3] (RDH10 knockdown); in the data set with L02 human liver cells (RDH10 knockdown)) was “almost completely lost” throughout. For the same molecule, the “lipid droplets, Control siRNA group” value (in data set [3] (setting [7]); in the data set on L02 human liver cells (setting [7])) was “significantly reduced in size” throughout. In addition, at RDH10 protein, binding was put at a Kd of 8.31 µM. The “competitive inhibition of probe binding to RDH10 protein” value at RDH10 [4] is recorded as “reduces the binding of the molecular probe to the RDH10 protein”. Moreover, in the data set on NASH in MCD model mice [5], the “serum ALT levels” value is on record as “significantly reduced”. The “serum AST levels” value with NASH in MCD model mice [5] was “significantly reduced”.

Regarding `CC[C@H]1[C@@H](O)[C@@H]2[C@H](CC[C@]3(C)[C@@H]([C@H](C)CCC(=O)O)CC[C@@H]23)[C@@]2(C)CC[C@@H](O)C[C@@H]12` [obeticholic acid], in data set [6], the “serious side effects in clinical trials” value is on record as “severe pruritus”.
